Measured values reported in ChEMBL document CHEMBL1926647, “Discovery of 4-aminomethylphenylacetic acids as γ-secretase modulators via a scaffold design approach” (Bioorg Med Chem Lett, 2011).
Activity calls are given as the source filed them. No cut-off for these calls is given here.

Tests used:
[1] = Modulation of gamma-secretase-mediated cleavage of APP assessed as reduction in amyloid beta42 production
[2] = Drug uptake in wild type CF1 mouse brain at 30 mg/kg, po after 4 hrs; format: ADME, organism-based; set-up: dose 30 mg/kg, route oral; conditions: read-out: Drug uptake
Mus musculus [3] = assay: Inhibition of gamma-secretase-mediated cleavage of APP in wild type CF1 mouse brain assessed as inhibition of amyloid beta42 production at 30 mg/kg, po after 4 hrs by ELISA; format: functional; conditions: for inhibition in vivo at 30 mg/kg: Mus musculus, CF1, Brain, po, 4 h
[4] = Modulation of gamma-secretase expressed in CHO cells co-expressing APP V717F mutant assessed as reduction in amyloid beta42 production after 17 hrs by ELISA; format: cell-based
[5] = Drug uptake in wild type CF1 mouse plasma at 30 mg/kg, po after 4 hrs; format: ADME, organism-based; set-up: dose 30 mg/kg, route oral
Brain = assay: Drug uptake in rat brain at 30 mg/kg, po after 4 hrs; conditions: in vivo
Rattus norvegicus [6] = assay: Inhibition of gamma-secretase-mediated cleavage of APP in rat brain assessed as inhibition of amyloid beta42 production at 30 mg/kg, po after 4 hrs by ELISA
Mus musculus [7] = assay: Inhibition of gamma-secretase-mediated cleavage of APP in wild type CF1 mouse brain assessed as inhibition of amyloid beta42 production at 12.5 mg/kg, po after 4 hrs by ELISA; format: functional
[8] = Drug uptake in wild type CF1 mouse brain at 50 mg/kg, po after 4 hrs; format: ADME, organism-based; set-up: dose 50 mg/kg, route oral; conditions: read-out: Drug uptake
Mus musculus [9] = assay: Inhibition of gamma-secretase-mediated cleavage of APP in wild type CF1 mouse brain assessed as inhibition of amyloid beta42 production at 50 mg/kg, po after 4 hrs by ELISA; format: functional
Mus musculus [10] = assay: Inhibition of gamma-secretase-mediated cleavage of APP in orally dosed wild type CF1 mouse brain assessed as inhibition of amyloid beta42 production after 4 hrs by ELISA; format: functional, organism-based
CHO [11] = assay: Modulation of gamma-secretase expressed in CHO cells co-expressing APP V717F mutant assessed as increase in amyloid beta38 secretion after 17 hrs by ELISA; format: cell-based
CHO [12] = assay: Modulation of gamma-secretase expressed in CHO cells co-expressing APP V717F mutant assessed as effect on amyloid beta40 production after 17 hrs by ELISA; format: cell-based
[13] = Drug uptake in wild type CF1 mouse plasma at 50 mg/kg, po after 4 hrs; format: ADME, organism-based; set-up: dose 50 mg/kg, route oral
[14] = Ratio of drug level in brain to plasma in wild type CF1 mouse at 30 mg/kg, po after 4 hrs; format: ADME, organism-based; set-up: dose 30 mg/kg, route oral; conditions: read-out: BPR
Cytochrome P450 2D6 = Cytochrome P450 2D6 (Homo sapiens, UniProt P10635); assay: Inhibition of human CYP2D6; format: ADME
Sequence of Cytochrome P450 2D6 (P10635 whole entry): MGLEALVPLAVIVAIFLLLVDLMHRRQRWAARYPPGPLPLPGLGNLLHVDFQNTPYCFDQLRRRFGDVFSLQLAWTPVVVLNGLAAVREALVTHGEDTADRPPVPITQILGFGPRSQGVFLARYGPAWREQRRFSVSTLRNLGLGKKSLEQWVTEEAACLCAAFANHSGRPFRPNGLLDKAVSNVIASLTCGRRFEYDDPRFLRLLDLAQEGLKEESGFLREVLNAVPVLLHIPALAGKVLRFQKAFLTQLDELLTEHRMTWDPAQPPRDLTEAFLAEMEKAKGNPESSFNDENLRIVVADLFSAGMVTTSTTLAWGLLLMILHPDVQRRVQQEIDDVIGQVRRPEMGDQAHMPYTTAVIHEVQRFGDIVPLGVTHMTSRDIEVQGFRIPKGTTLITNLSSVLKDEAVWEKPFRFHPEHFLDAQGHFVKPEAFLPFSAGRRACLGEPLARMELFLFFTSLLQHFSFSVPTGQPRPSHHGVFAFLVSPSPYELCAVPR

[15] = Clearance in F344 rat at 2 mg/kg; format: ADME, organism-based; set-up: dose 2 mg/kg; conditions: in vivo
Cytochrome P450 2C19 = Cytochrome P450 2C19 (Homo sapiens, UniProt P33261); assay: Inhibition of human CYP2C19; format: ADME
Sequence of Cytochrome P450 2C19 (P33261 whole entry): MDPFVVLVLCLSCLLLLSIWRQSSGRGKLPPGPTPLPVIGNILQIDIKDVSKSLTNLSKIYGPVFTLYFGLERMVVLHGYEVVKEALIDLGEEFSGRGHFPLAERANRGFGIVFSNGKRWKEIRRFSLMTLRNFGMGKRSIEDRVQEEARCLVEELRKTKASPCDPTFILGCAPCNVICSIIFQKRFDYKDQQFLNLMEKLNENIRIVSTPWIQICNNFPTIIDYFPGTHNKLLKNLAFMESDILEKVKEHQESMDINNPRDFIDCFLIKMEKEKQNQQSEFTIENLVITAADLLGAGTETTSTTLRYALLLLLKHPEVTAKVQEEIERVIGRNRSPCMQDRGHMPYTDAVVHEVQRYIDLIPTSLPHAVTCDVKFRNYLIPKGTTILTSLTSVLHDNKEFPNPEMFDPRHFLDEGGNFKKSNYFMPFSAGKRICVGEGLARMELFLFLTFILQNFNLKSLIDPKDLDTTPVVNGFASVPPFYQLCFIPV

[16] = Apparent permeability from apical to basolateral side in human Caco2 cells; format: ADME, cell-based; conditions: caco-2
Rattus norvegicus [17] = species: Rattus norvegicus; assay: Liver blood flow in rat; format: ADME, organism-based
[18] = Drug uptake in wild type CF1 mouse brain at 12.5 mg/kg, po after 4 hrs; format: ADME, organism-based; set-up: dose 12.5 mg/kg, route oral; conditions: read-out: Drug uptake
[19] = Clearance in dog at 0.5 mg/kg; format: ADME, organism-based, Canis lupus familiaris; set-up: dose 0.5 mg/kg; conditions: in vivo
[20] = Half life in F344 rat at 2 mg/kg; format: ADME, organism-based; set-up: dose 2 mg/kg; conditions: in vivo
Homo sapiens = species: Homo sapiens; assay: Liver blood flow in human; format: ADME, organism-based
[21] = Half life in dog at 0.5 mg/kg; format: ADME, organism-based, Canis lupus familiaris; set-up: dose 0.5 mg/kg; conditions: in vivo
Canis familiaris = assay: Dose normalised AUC in dog at 0.5 mg/kg; format: ADME, organism-based, Canis lupus familiaris; set-up: dose 0.5 mg/kg; conditions: in vivo
Rattus norvegicus [22] = assay: Dose normalised AUC in F344 rat at 2 mg/kg; format: ADME, organism-based; set-up: dose 2 mg/kg; conditions: in vivo
[23] = Cmax in dog at 0.5 mg/kg; format: ADME, organism-based, Canis lupus familiaris; set-up: dose 0.5 mg/kg; conditions: in vivo
[24] = molecular target: Voltage-gated inwardly rectifying potassium channel KCNH2 (Homo sapiens, UniProt Q12809); assay: Inhibition of human ERG at 10 uM
Sequence of Voltage-gated inwardly rectifying potassium channel KCNH2 (Q12809 whole entry): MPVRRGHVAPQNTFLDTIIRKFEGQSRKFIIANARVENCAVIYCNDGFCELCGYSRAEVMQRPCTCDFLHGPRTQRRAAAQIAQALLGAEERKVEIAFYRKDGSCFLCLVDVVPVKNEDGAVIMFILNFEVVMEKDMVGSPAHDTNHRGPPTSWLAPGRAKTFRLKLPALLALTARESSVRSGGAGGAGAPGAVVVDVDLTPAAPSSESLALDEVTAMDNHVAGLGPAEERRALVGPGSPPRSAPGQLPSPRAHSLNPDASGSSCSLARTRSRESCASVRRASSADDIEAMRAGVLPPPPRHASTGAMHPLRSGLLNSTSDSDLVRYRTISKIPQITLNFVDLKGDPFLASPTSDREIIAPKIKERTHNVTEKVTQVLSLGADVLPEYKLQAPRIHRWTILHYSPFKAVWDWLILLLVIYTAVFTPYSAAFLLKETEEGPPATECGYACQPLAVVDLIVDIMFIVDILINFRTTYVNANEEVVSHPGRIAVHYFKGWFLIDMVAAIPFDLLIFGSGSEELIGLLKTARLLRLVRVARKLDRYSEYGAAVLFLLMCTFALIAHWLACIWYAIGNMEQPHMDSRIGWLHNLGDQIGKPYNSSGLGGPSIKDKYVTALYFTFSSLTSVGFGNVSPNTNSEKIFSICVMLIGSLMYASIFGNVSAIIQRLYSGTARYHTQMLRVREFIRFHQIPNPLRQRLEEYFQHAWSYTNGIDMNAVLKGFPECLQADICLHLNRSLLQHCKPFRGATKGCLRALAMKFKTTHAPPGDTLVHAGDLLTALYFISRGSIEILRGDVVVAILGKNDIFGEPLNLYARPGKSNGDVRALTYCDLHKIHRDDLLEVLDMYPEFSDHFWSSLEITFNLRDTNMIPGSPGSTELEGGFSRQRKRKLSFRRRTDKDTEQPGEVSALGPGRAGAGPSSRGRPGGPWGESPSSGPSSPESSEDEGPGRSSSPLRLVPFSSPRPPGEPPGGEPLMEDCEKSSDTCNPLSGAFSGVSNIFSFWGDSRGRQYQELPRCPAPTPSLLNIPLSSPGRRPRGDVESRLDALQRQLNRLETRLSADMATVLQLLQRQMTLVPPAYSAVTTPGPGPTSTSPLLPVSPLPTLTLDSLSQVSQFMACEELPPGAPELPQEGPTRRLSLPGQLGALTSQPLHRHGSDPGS

Caco-2 = assay: Ratio of permeability from basolateral to apical side to apical to basolateral side in human Caco2 cells; format: ADME, cell-based
Cytochrome P450 3A4 = Cytochrome P450 3A4 (Homo sapiens, UniProt P08684); assay: Inhibition of human CYP3A4; format: ADME
Sequence of Cytochrome P450 3A4 (P08684 whole entry): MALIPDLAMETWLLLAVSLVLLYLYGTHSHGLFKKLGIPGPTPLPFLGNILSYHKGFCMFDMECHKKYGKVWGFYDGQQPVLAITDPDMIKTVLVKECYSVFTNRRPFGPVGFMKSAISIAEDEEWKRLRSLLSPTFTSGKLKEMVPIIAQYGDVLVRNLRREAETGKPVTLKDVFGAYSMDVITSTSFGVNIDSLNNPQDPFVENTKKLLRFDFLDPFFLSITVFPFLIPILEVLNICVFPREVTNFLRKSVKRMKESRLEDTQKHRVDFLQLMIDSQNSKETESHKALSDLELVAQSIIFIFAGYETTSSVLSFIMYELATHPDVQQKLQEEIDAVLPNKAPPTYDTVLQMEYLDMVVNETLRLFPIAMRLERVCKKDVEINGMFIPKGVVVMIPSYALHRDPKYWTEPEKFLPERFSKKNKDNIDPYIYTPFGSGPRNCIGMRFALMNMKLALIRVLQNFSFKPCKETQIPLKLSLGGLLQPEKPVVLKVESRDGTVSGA

Cytochrome P450 1A2 = molecular target: T1, Cytochrome P450 1A2 (Homo sapiens, UniProt P05177); assay: Inhibition of human CYP1A2; format: ADME
T1 sequence (P05177 whole entry): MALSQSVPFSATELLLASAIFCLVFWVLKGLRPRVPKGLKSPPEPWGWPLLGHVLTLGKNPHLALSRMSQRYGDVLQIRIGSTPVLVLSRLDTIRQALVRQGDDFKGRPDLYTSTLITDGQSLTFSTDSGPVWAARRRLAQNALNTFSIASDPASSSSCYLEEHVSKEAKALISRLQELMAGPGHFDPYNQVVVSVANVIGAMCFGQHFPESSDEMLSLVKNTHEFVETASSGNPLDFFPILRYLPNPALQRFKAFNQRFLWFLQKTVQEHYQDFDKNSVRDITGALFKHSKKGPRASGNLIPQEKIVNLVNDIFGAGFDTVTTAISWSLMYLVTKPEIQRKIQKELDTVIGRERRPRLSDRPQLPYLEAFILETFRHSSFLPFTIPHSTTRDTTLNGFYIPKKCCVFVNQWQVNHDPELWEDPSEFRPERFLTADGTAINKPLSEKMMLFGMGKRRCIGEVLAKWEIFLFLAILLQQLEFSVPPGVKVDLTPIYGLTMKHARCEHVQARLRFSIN

Cytochrome P450 2C9 = Cytochrome P450 2C9 (Homo sapiens, UniProt P11712); assay: Inhibition of human CYP2C9; format: ADME
Sequence of Cytochrome P450 2C9 (P11712 whole entry): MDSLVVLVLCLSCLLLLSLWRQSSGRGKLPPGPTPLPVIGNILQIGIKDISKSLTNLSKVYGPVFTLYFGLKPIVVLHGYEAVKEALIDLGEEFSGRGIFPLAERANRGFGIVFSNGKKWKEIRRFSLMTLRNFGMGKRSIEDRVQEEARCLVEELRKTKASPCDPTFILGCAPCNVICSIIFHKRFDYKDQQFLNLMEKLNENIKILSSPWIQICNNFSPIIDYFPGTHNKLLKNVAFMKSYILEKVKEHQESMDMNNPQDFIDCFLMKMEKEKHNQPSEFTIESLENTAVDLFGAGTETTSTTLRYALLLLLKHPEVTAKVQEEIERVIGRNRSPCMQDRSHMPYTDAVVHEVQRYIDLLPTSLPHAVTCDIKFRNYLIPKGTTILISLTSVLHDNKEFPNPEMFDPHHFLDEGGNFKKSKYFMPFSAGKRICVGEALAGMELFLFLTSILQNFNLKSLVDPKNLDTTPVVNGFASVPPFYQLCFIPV

## O=C(O)C1(c2ccc(-c3ccc(Cl)c(Cl)c3)c(F)c2)CC1
[1]
  EC50: 40000 nM

## O=C(O)Cc1ccc(C(C2CCCCC2)N2CCC(C(F)(F)F)CC2)c(-c2ccc(C(F)(F)F)cc2)c1 (stereo not drawn)
[2]
  concentration at 4 h: 10 µM
Mus musculus [3]
  inhibition in vivo at 30 mg/kg: 15%
[4]
  EC50: 420 nM
[5]
  concentration at 4 h: 23 µM

## CC(C)CCC(NC1CCC(C(C)(C)C)CC1)c1ccc(CC(=O)O)cc1-c1ccc(C(F)(F)F)cc1 (stereo not drawn)
[4]
  EC50: 450 nM

## CC(C)(C)CC(c1ccc(CC(=O)O)cc1-c1ccc(C(F)(F)F)cc1)N1CCC(C(F)(F)F)CC1 (single isomer, unassigned; enantiomer 2)
Brain
  concentration: 26 µM
Rattus norvegicus [6]
  inhibition (INH): 30%
Mus musculus [7]; 12.5 mg/kg
  inhibition (INH): 30%

## O=C(O)Cc1ccc(C(CCC(F)(F)F)N2CCC(C(F)(F)F)CC2)c(-c2ccc(C(F)(F)F)cc2)c1 (stereo not drawn)
[4]
  EC50: 1400 nM

## CC(C)CCC(c1ccc(C(CC(C)C)C(=O)O)cc1-c1ccc(C(F)(F)F)cc1)N1CCC(C(F)(F)F)CC1 (stereo not drawn)
[2]
  concentration at 4 h: 4 µM
Mus musculus [3]
  inhibition in vivo at 30 mg/kg: 21%
[4]
  EC50: 210 nM
[5]
  concentration at 4 h: 14 µM

## CC(C)CCN(Cc1ccc(C(CC(C)C)C(=O)O)cc1-c1ccc(C(F)(F)F)cc1)[C@H]1CC[C@H](C(C)(C)C)CC1 (mixture of isomers)
[8]
  concentration at 4 h: 0.7 µM
[4]
  EC50: 120 nM
Mus musculus [9]
  inhibition: inactive

## CC(C)CCC(c1ccc(CC(=O)O)cc1-c1ccc(C(F)(F)F)cc1)N1CCC(F)CC1 (stereo not drawn)
[4]
  EC50: 3300 nM

## CC(C)CCC(c1ccc(CC(=O)O)cc1-c1ccc(C(F)(F)F)cc1)N1CC[C@H](F)C1 (stereo partly drawn)
[4]
  EC50: 5900 nM

## O=C(O)Cc1ccc(C(CC2CCCCC2)N2CCC(C(F)(F)F)CC2)c(-c2ccc(C(F)(F)F)cc2)c1 (stereo not drawn)
[2]
  concentration at 4 h: 18 µM
Mus musculus [3]
  inhibition in vivo at 30 mg/kg: 30%
[4]
  EC50: 540 nM
[5]
  concentration at 4 h: 25 µM

## CC(C)(C)CC(c1ccc(CC(=O)O)cc1-c1ccc(C(F)(F)F)cc1)N1CCC(C(F)(F)F)CC1 (racemic) [listing 1 of 2 here]
Mus musculus [10]
  inhibition: Dose-dependent effect

## CC(C)CCN(Cc1ccc(CC(=O)O)cc1-c1ccc(C(F)(F)F)cc1)c1ccc(C(F)(F)F)cc1
CHO [11]
  Activity: Active
CHO [12]
  Activity: inactive
[8]
  concentration at 4 h: 0.6 µM
[4]
  EC50: 1500 nM
[13]
  concentration at 4 h: 15 µM
Mus musculus [9]
  inhibition: inactive

## CC(C)(C)CC(c1ccc(CC(=O)O)cc1-c1ccc(C(F)(F)F)cc1)N1CCC(C(F)(F)F)CC1 (racemic) [listing 2 of 2 here]
[14]
  Kp at 4 h: 1
[2]
  concentration at 4 h: 32 µM
Cytochrome P450 2D6
  IC50: > 10000 nM
Mus musculus [3]; 30 mg/kg
  inhibition (INH): 50%
[15]
  clearance: 2.5 mL/min/kg
Cytochrome P450 2C19
  IC50: > 10000 nM
[16]
  Papp A→B: 16 ×10⁻⁶ cm/s
Rattus norvegicus [17]
  QH: 31%
[18]
  concentration at 4 h: 9 µM
[19]
  clearance: 0.6 mL/min/kg
[20]
  half-life: 9.6 h
Homo sapiens
  QH: 39%
[21]
  half-life: 10.1 h
[4]
  EC50: 630 nM
[5]
  concentration at 4 h: 37 µM
Canis familiaris
  AUC/dose: 28712 ng·kg·h/mL/mg
Rattus norvegicus [22]
  AUC/dose: 5495 ng·kg·h/mL/mg
[23]
  Cmax: 1120 ng/mL
[24]
  inhibition (INH): Not Active
Caco-2
  Ratio: 1.9
Cytochrome P450 3A4
  IC50: > 10000 nM
Mus musculus [7]; Mus musculus, CF1, Brain, po, 4 h
  inhibition in vivo at 12.5 mg/kg: 25%
Cytochrome P450 1A2
  IC50: > 10000 nM
Cytochrome P450 2C9
  IC50: > 10000 nM

## CC(C)CCC(c1ccc(C(C)C(=O)O)cc1-c1ccc(C(F)(F)F)cc1)N1CCC(C(F)(F)F)CC1 (stereo not drawn)
[2]
  concentration at 4 h: 13 µM
Mus musculus [3]
  inhibition in vivo at 30 mg/kg: 35%
[4]
  EC50: 340 nM
[5]
  concentration at 4 h: 22 µM
